“And” between values parts separate entries of the source, which are not always exact repeats. Equal values may be shown once.
What was measured:
Conditions in all cases: incubation time: 72 h
[1] = test system: DU-4475; assay: drug sensitivity score (DSS), CellTiter-Blue viability (DSS (AUC-based score)); higher = stronger viability inhibition; extreme values may be limits of the assay
Procedure: (§1)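 DSRT with the CellTiter-Blue (resazurin reduction) viability readout, fluorescence 560/590 nm, 72 h incubation. Plates were normalised to DMSO and benzethonium chloride controls. DSS is computed from the area under the fitted dose-response curve (5 or 9 concentrations).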

[2] = test system: CAL-51; assay: as above
Procedure: as §1

[3] = test system: CAL-120; assay: as above
Procedure: as §1

[4] = test system: CAL-148; assay: as above
Procedure: as §1

[5] = test system: MDA-MB-453; assay: as above
Procedure: as §1

[6] = test system: BT-474; assay: as above
Procedure: as §1

[7] = test system: Hs578T; assay: as above
Procedure: as §1

[8] = test system: MDA-MB-468; assay: as above
Procedure: as §1

[9] = test system: CAL-85-1; assay: as above
Procedure: as §1

[10] = test system: HCC1599; assay: as above
Procedure: as §1

[11] = test system: MDA-MB-231; assay: as above
Procedure: as §1

[12] = test system: HDQ-P1; assay: as above
Procedure: as §1

[13] = test system: MFM-223; assay: as above
Procedure: as §1

[14] = test system: HCC1143; assay: as above
Procedure: as §1

[15] = test system: HCC1937; assay: as above
Procedure: as §1

[16] = test system: DU-4475; assay: normalised viability (% of control), CellTiter-Blue; higher = more viable cells (about 100 = DMSO control)
How it was run: (§2)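 Compound dissolved in 5 µl medium was pre-loaded into 384-well plates, and breast cancer cell lines in 20 µl suspension were seeded on top and incubated 72 h. After adding 2.5 µl CellTiter-Blue reagent for 2 h at 37 °C, fluorescence was read at 560/590 nm. Plates were normalised to vehicle (100) and a positive kill control (0), with Z'-factor quality control. Each value is normalised viability at a single listed concentration from the series.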

[17] = test system: CAL-120; assay: as above
How it was run: as §2

[18] = test system: MDA-MB-453; assay: as above
How it was run: as §2

[19] = test system: BT-474; assay: as above
How it was run: as §2

[20] = test system: MDA-MB-436; assay: as above
How it was run: as §2

[21] = test system: Hs578T; assay: as above
How it was run: as §2

[22] = test system: MDA-MB-468; assay: as above
How it was run: as §2

[23] = test system: CAL-85-1; assay: as above
How it was run: as §2

[24] = test system: HCC1599; assay: as above
How it was run: as §2

[25] = test system: BT-549; assay: as above
How it was run: as §2

[26] = test system: MDA-MB-231; assay: as above
How it was run: as §2

[27] = test system: SK-BR-3; assay: as above
How it was run: as §2

[28] = test system: MFM-223; assay: as above
How it was run: as §2

SMILES | drug sensitivity score [1] | drug sensitivity score [2] | drug sensitivity score [3] | drug sensitivity score [4] | drug sensitivity score [5] | drug sensitivity score [6] | drug sensitivity score [7] | drug sensitivity score [8] | drug sensitivity score [9] | drug sensitivity score [10] | drug sensitivity score [13] | drug sensitivity score [14] | drug sensitivity score [15] | normalised viability ([16]; 10 nM) | normalised viability ([18]; 10 nM) | normalised viability ([19]; 100 nM) | normalised viability ([20]; 100 nM) | normalised viability ([21]; 100 nM) | normalised viability ([22]; 100 nM) | normalised viability ([23]; 10 nM) | further results
S=P(N1CC1)(N1CC1)N1CC1 [Thio-TEPA] | 0 | 0 | 0 | 0 | 0 | 0 | 0 | 0 | 0 | 0 | 0 | 0 | 0 |  |  |  |  |  |  |  | drug sensitivity score [11]: 3.37; drug sensitivity score [12]: 0; normalised viability ([16]; 100 nM): 102%; normalised viability ([17]; 1000 nM): 86.7%; normalised viability ([18]; 100 nM): 97.6%; normalised viability ([19]; 1000 nM): 114%; normalised viability ([20]; 1000 nM): 118%; normalised viability ([21]; 1000 nM): 90.8%; normalised viability ([22]; 1000 nM): 103%; normalised viability ([23]; 100 nM): 102%; normalised viability ([24]; 1000 nM): 87.4%; normalised viability ([25]; 1000 nM): 105%; normalised viability ([26]; 1000 nM): 98.2%; normalised viability ([27]; 1000 nM): 91.1%; normalised viability ([28]; 1000 nM): 88.4%
C=C1C[C@@H]2[C@H](CC[C@]3(C)C(=O)CC[C@@H]23)[C@@]2(C)C=CC(=O)C=C12 [Exemestane] | 0 | 0 | 0 | 0 | 1.5 | 0 | 0 | 0 | 0 | 0 | 0 | 0 | 0 | 91.1% | 102% | 99.4% | 82.8% | 94.4% | 111% | 84.4% | drug sensitivity score [11]: 0; drug sensitivity score [12]: 0; normalised viability ([17]; 100 nM): 92.7%; normalised viability ([24]; 100 nM): 87.6%; normalised viability ([25]; 100 nM): 106%; normalised viability ([26]; 100 nM): 99.2%; normalised viability ([27]; 100 nM): 78%; normalised viability ([28]; 100 nM): 93%
N#Cc1ccc(COC[C@H]2O[C@@H](n3c(NCc4ccc(Cl)c(Cl)c4)nc4c(N)ncnc43)[C@H](O)[C@@H]2O)cc1 | 1.33 | 0 | 0 | 0 | 0 | 0 | 0 | 1.65 | 0 | 8.13 | 0 | 0 | 3.59 | 111% | 105% | 123% | 104% | 95.8% | 94.5% | 110% | drug sensitivity score [11]: 4.35; drug sensitivity score [12]: 0; normalised viability ([17]; 100 nM): 106%; normalised viability ([24]; 100 nM): 97.1%; normalised viability ([25]; 100 nM): 95.2%; normalised viability ([26]; 100 nM): 90.1%; normalised viability ([27]; 100 nM): 89.7%; normalised viability ([28]; 100 nM): 93.9%
O=C(Nc1cccnc1)N1CCC(Cc2cccc(Oc3ccc(C(F)(F)F)cn3)c2)CC1 [PF-3845] | 0 | 0.908 | 0 | 0 | 4.35 | 1.39 | 0.892 | 0.694 | 0 | 0 | 0 | 0 | 0 | 104% | 105% | 116% | 113% | 122% | 102% | 92.2% | drug sensitivity score [11]: 0; drug sensitivity score [12]: 0; normalised viability ([17]; 100 nM): 96.5%; normalised viability ([24]; 100 nM): 99.6%; normalised viability ([25]; 100 nM): 111%; normalised viability ([26]; 100 nM): 128%; normalised viability ([27]; 100 nM): 104%; normalised viability ([28]; 100 nM): 90.1%
c1ccc2c(CCNc3ccc(Nc4ccncc4)cc3)c[nH]c2c1 [Serdemetan] | 3.86 | 1.53 | 0 | 4.36 | 3.89 | 0 | 2.84 | 0 | 0 | 1.87 | 0 | 0 | 0 | 103% | 96.7% | 111% | 113% | 77.2% | 108% | 102% | drug sensitivity score [11]: 0; drug sensitivity score [12]: 0; normalised viability ([17]; 100 nM): 81.9%; normalised viability ([24]; 100 nM): 136%; normalised viability ([25]; 100 nM): 113%; normalised viability ([26]; 100 nM): 85.8%; normalised viability ([27]; 100 nM): 79.7%; normalised viability ([28]; 100 nM): 92.4%
CCc1c2c(nc3ccc(OC(=O)N4CCC(N5CCCCC5)CC4)cc13)-c1cc3c(c(=O)n1C2)COC(=O)[C@]3(O)CC [Irinotecan] | 7.9 and 5.68 | 6.14 and 4.1 | 5.49 and 3.99 | 9.3 and 7.24 |  | 0 | 0 | 6.9 and 5.16 | 2.57 and 1.55 |  |  |  | 9.68 and 9.91 | 115% and 123% | 102% and 115% | 110% and 106% | 89.2% and 99.7% | 97.9% and 90.4% | 102% and 108% | 90.9% and 99.3% | normalised viability ([25]; 100 nM): 91.5% and 90%; normalised viability ([26]; 100 nM): 90.9% and 103%; normalised viability ([27]; 100 nM): 80.2% and 85.2%; normalised viability ([28]; 100 nM): 93.8% and 94.5%
COc1cc2ncnc(Nc3ccc(F)c(Cl)c3)c2cc1OCCCN1CCOCC1 [Gefitinib] | 0 | 0 |  | 2.15 and 4.81 | 3.14 and 5.26 | 9.05 and 8.8 |  | 9.52 and 7.51 | 8.75 and 10.2 | 2.82 and 3.43 | 0 | 0 | 0 | 108% and 93.9% | 96.9% | 92.3% and 101% | 89.9% and 93.7% | 86.3% and 99.7% | 81.7% and 89.3% | 94.2% and 95.5% | normalised viability ([17]; 100 nM): 81.9% and 92.8%; normalised viability ([24]; 100 nM): 102% and 113%; normalised viability ([25]; 100 nM): 108%; normalised viability ([26]; 100 nM): 93.9% and 97%; normalised viability ([27]; 100 nM): 80.9% and 72.1%; normalised viability ([28]; 100 nM): 98.7% and 89.5%
